Results: patent publication US5919756A, “Amides” (Eli Lilly and Company, priority 1997, dated 1999)
Converted amounts (≈) assume the structure as drawn.

Columns and labels:
Assay type in all cases: cell-based
[1] = tested on: Staphylococcus aureus 447; assay: Broth micro-dilution MIC, SA 447; settings: unit assumed
Protocol: (§1) The antibacterial efficacy of the present compounds is illustrated in TABLE 2. The minimal inhibitory concentrations (MICs) were determined using a standard broth micro-dilution assay.

[2] = tested on: Streptococcus pneumoniae P1; assay: Broth micro-dilution MIC, S PN P1; settings: unit assumed
Protocol: as §1

[3] = tested on: Staphylococcus epidermis 270; assay: Broth micro-dilution MIC, SE 270; settings: unit assumed
Protocol: as §1

[4] = tested on: Streptococcus pyogenes 203; assay: Broth micro-dilution MIC, S PY 203; settings: unit assumed
Protocol: as §1

[5] = tested on: Staphylococcus haemolyticus 105; assay: Broth micro-dilution MIC, SH 105; settings: unit assumed
Protocol: as §1

[6] = tested on: Staphylococcus haemolyticus 415; assay: Broth micro-dilution MIC, SH 415; settings: unit assumed
Protocol: as §1

[7] = tested on: Enterococcus, Sensitive (4-6 isolates); assay: Enterococcus screen, broth micro-dilution MIC, sensitive isolates; design: unit not given here; settings: mean of 4-6 isolates
Protocol: as §1

[8] = tested on: Enterococcus, Resistant (4-6 isolates); assay: Enterococcus screen, broth micro-dilution MIC, resistant isolates; design: unit not given here; settings: mean of 4-6 isolates
Protocol: as §1

[9] = tested on: Staphylococcus aureus 446; assay: Broth micro-dilution MIC, SA 446; settings: unit assumed
Protocol: as §1

[10] = tested on: Staphylococcus aureus 489; assay: Broth micro-dilution MIC, SA 489; settings: unit assumed
Protocol: as §1

Compound | MIC, SA 447 [1] | MIC, S PN P1 [2] | MIC, SE270 [3] | MIC, S PY 203 [4] | MIC, SH105 [5] | MIC, SH415 [6] | Minimum Inhibitory Concentrations (MICs), Mean Values of 4-6 Isolates, Sensitive [7] | Minimum Inhibitory Concentrations (MICs), Mean Values of 4-6 Isolates, Resistant [8] | MIC, SA 446 [9] | MIC, SA 489 [10]
N^4 -(4-phenylbenzyl)A82846B, tert-butylamide, trifluoroacetate salt [Example 4] | 0.5 µg/mL | ≤ 0.06 µg/mL | 0.125 µg/mL | ≤ 0.06 µg/mL | 1 µg/mL | 2 µg/mL | 0.082 | 2 | 2 µg/mL | 
CNC(CC(C)C)C(=O)NC1C(=O)NC(CC(N)=O)C(=O)NC2C(=O)NC3C(=O)NC(C(=O)NC(C(=O)NCCc4ccccc4)c4cc(O)cc(O)c4-c4cc3ccc4O)C(OC3CC(C)(N)C(O)C(C)O3)c3ccc(c(Cl)c3)Oc3cc2cc(c3OC2OC(CO)C(O)C(O)C2OC2CC(C)(NCc3ccc(-c4ccccc4)cc3)C(O)C(C)O2)Oc2ccc(cc2Cl)C1O.Cl (stereo not shown) [Example 18, N^4-(4-phenylbenzyl)A82846B, phenethylamide, HCl salt] | 1 µg/mL | ≤ 0.06 µg/mL | 1 µg/mL | ≤ 0.06 µg/mL | 2 µg/mL | 2 µg/mL | 0.19 | 0.84 | 1 µg/mL | 2 µg/mL
N^4 -(4-phenoxybenzyl)A82846B, n-octylamide, trifluoroacetate salt [Example 6] | 1 µg/mL |  | 1 µg/mL | ≤ 0.06 µg/mL | 1 µg/mL | 4 µg/mL | 0.44 | 1.7 | 4 µg/mL | 2 µg/mL
N^4 -(4-phenylbenzy1)A82846B, DL-(2-furanon-3-yl)amide [Example 7] | 2 µg/mL | ≤ 0.06 µg/mL | 0.5 µg/mL | ≤ 0.06 µg/mL | 0.5 µg/mL | 1 µg/mL | 0.048 | 1.7 | 2 µg/mL | 1 µg/mL
CNC(CC(C)C)C(=O)NC1C(=O)NC(CC(N)=O)C(=O)NC2C(=O)NC3C(=O)NC(C(=O)NC(C(=O)NCCCOC)c4cc(O)cc(O)c4-c4cc3ccc4O)C(OC3CC(C)(N)C(O)C(C)O3)c3ccc(c(Cl)c3)Oc3cc2cc(c3OC2OC(CO)C(O)C(O)C2OC2CC(C)(NCc3ccc(-c4ccccc4)cc3)C(O)C(C)O2)Oc2ccc(cc2Cl)C1O (stereo not shown) [Example 13, N^4-(4-phenylbenzyl)A82846B, (3-methoxypropyl)amide] | 1 µg/mL (≈ 0.547 µM) | ≤ 0.06 µg/mL | 1 µg/mL (≈ 0.547 µM) | ≤ 0.06 µg/mL | 2 µg/mL (≈ 1.09 µM) | 0.5 µg/mL (≈ 0.273 µM) | 0.072 | 1.4 | 1 µg/mL (≈ 0.547 µM) | 1 µg/mL (≈ 0.547 µM)
CNC(CC(C)C)C(=O)NC1C(=O)NC(CC(N)=O)C(=O)NC2C(=O)NC3C(=O)NC(C(=O)NC(C(=O)NCc4ccc(OC)cc4)c4cc(O)cc(O)c4-c4cc3ccc4O)C(OC3CC(C)(N)C(O)C(C)O3)c3ccc(c(Cl)c3)Oc3cc2cc(c3OC2OC(CO)C(O)C(O)C2OC2CC(C)(NCc3ccc(-c4ccccc4)cc3)C(O)C(C)O2)Oc2ccc(cc2Cl)C1O.O=C(O)C(F)(F)F (stereo not shown) [Example 12, N^4-(4-phenylbenzyl)A82846B, (4-methoxybenzyl) amide, trifluoroacetate salt] | 1 µg/mL | ≤ 0.06 µg/mL | 2 µg/mL | ≤ 0.06 µg/mL | 1 µg/mL | 4 µg/mL | 0.13 | 1.7 | 2 µg/mL | 0.5 µg/mL
CNC(CC(C)C)C(=O)NC1C(=O)NC(CC(N)=O)C(=O)NC2C(=O)NC3C(=O)NC(C(=O)NC(C(=O)NCCc4ccccc4)c4cc(O)cc(O)c4-c4cc3ccc4O)C(OC3CC(C)(N)C(O)C(C)O3)c3ccc(c(Cl)c3)Oc3cc2cc(c3OC2OC(CO)C(O)C(O)C2OC2CC(C)(NCc3ccc(-c4ccc(C)cc4)cc3)C(O)C(C)O2)Oc2ccc(cc2Cl)C1O (stereo not shown) [Example 19, N^4-(4-(4-methylphenyl)benzyl)-A82846B, phenethylamide] | 4 µg/mL (≈ 2.13 µM) | ≤ 0.06 µg/mL | 2 µg/mL (≈ 1.07 µM) | ≤ 0.06 µg/mL | 2 µg/mL (≈ 1.07 µM) | 4 µg/mL (≈ 2.13 µM) | 0.22 | 1 | 2 µg/mL (≈ 1.07 µM) | 2 µg/mL (≈ 1.07 µM)
CNC(CC(C)C)C(=O)NC1C(=O)NC(CC(N)=O)C(=O)NC2C(=O)NC3C(=O)NC(C(=O)NC(C(=O)NCCCN(C)C)c4cc(O)cc(O)c4-c4cc3ccc4O)C(OC3CC(C)(N)C(O)C(C)O3)c3ccc(c(Cl)c3)Oc3cc2cc(c3OC2OC(CO)C(O)C(O)C2OC2CC(C)(N)C(O)C(C)O2)Oc2ccc(cc2Cl)C1O.O=C(O)C(F)(F)F (stereo not shown) [Example 23, A82846B, (3-(dimethylamino)-n-propyl)amide, trifluoroacetate salt] | 0.125 µg/mL | ≤ 0.06 µg/mL | ≤ 0.06 µg/mL | ≤ 0.06 µg/mL | ≤ 0.06 µg/mL | ≤ 0.06 µg/mL | 0.44 | > 128 | 0.125 µg/mL | ≤ 0.06 µg/mL
N^4 -(4-(4-CHLOROPHENYL)BENZYL)A82846B, 5-(TERT-BUTOXYCARBONYLAMINO)PENTYLAMIDE, TRIS(TRIFLUOROACETATE) SALT [Example 25] |  |  |  |  |  |  | 5.0 | 2.8 |  | 
N^4 -(4-phenoxybenzyl)A82846B, tert-butylamide, trifluoroacetate salt [Example 5] | 2 µg/mL |  | 4 µg/mL | ≤ 0.06 µg/mL | 4 µg/mL | 2 µg/mL | 0.22 | 4 | 8 µg/mL | 2 µg/mL
CNC(CC(C)C)C(=O)NC1C(=O)NC(CC(N)=O)C(=O)NC2C(=O)NC3C(=O)NC(C(=O)NC(C(=O)NCCc4ccccc4)c4cc(O)cc(O)c4-c4cc3ccc4O)C(OC3CC(C)(N)C(O)C(C)O3)c3ccc(c(Cl)c3)Oc3cc2cc(c3OC2OC(CO)C(O)C(O)C2OC2CC(C)(N)C(O)C(C)O2)Oc2ccc(cc2Cl)C1O.O=C(O)C(F)(F)F (stereo not shown) [Example 16, A82846B, phenethylamide, trifluoroacetate salt] | ≤ 0.06 µg/mL | ≤ 0.06 µg/mL | ≤ 0.06 µg/mL |  | ≤ 0.06 µg/mL | 0.125 µg/mL | 0.25 | 16 | 0.125 µg/mL | ≤ 0.06 µg/mL
N^4 -(4-(4-CHLOROPHENYL)BENZYL)A82846B, 5-AMINOPENTYLAMIDE, TETRA(TRIFLUOROACETATE) SALT [Example 26] | 1 µg/mL | 0.25 µg/mL | 1 µg/mL | 0.25 µg/mL | 0.5 µg/mL | 2 µg/mL | 0.44 | 1.7 |  | 2 µg/mL
CNC(CC(C)C)C(=O)NC1C(=O)NC(CC(N)=O)C(=O)NC2C(=O)NC3C(=O)NC(C(=O)NC(C(=O)NCCc4ccccc4)c4cc(O)cc(O)c4-c4cc3ccc4O)C(OC3CC(C)(N)C(O)C(C)O3)c3ccc(c(Cl)c3)Oc3cc2cc(c3OC2OC(CO)C(O)C(O)C2OC2CC(C)(NCc3ccc(-c4ccccc4)cc3)C(O)C(C)O2)Oc2ccc(cc2Cl)C1O (stereo not shown) [Example 17, N^4-(4-phenylbenzyl)A82846B, phenethylamide] |  |  |  |  |  |  | 0.25 | 1.4 |  | 
